Assay results from ChEMBL document CHEMBL5537170, “Design, Synthesis, and Anti-Osteoporotic Characterization of Arginine N-Glycosylated Teriparatide Analogs via the Silver-catalyzed Solid-Phase Glycosylation Strategy” (J Med Chem, 2024).
*1 amine or outer side, *2 acyl side, *3 side chain or, on linkers, in order; H or OH if unused. Where a SMILES comes first, the peptide text is derived from it. [ ]: non-standard residue; d: D form. X4 = N=C(NCCC[C@H](N[*:1])C(=O)[*:2])N[C@@H]1O[C@H](CO)[C@H](O)[C@H](O)[C@H]1O

Test: Cytotoxicity against C57BL/6 mouse Pre-Osteoblast cells assessed as cell death upto 5 uM incubated for 4 days by CCK-8 assay
Assay type: toxicity, cell-based
Details: 96 h, time 4 day

Compound | Activity
CC[C@H](C)[C@H](NC(=O)[C@H](CCC(=O)O)NC(=O)[C@H](CO)NC(=O)[C@@H](NC(=O)[C@H](CO)NC(C)=O)C(C)C)C(=O)N[C@@H](CCC(N)=O)C(=O)N[C@@H](CC(C)C)C(=O)N[C@@H](CCSC)C(=O)N[C@@H](Cc1cnc[nH]1)C(=O)N[C@@H](CC(N)=O)C(=O)N[C@@H](CC(C)C)C(=O)NCC(=O)N[C@@H](CCCCN)C(=O)N[C@@H](Cc1cnc[nH]1)C(=O)N[C@@H](CC(C)C)C(=O)N[C@@H](CC(N)=O)C(=O)N[C@@H](CO)C(=O)N[C@@H](CCSC)C(=O)N[C@@H](CCC(=O)O)C(=O)N[C@@H](CCCNC(=N)N[C@@H]1O[C@H](CO)[C@@H](O[C@@H]2O[C@H](CO)[C@H](O)[C@H](O)[C@H]2O)[C@H](O)[C@H]1O)C(=O)N[C@H](C(=O)N[C@@H](CCC(=O)O)C(=O)N[C@@H](Cc1c[nH]c2ccccc12)C(=O)N[C@@H](CC(C)C)C(=O)N[C@@H](CCCNC(=N)N)C(=O)N[C@@H](CCCCN)C(=O)N[C@@H](CCCCN)C(=O)N[C@@H](CC(C)C)C(=O)N[C@@H](CCC(N)=O)C(=O)N[C@@H](CC(=O)O)C(=O)N[C@H](C(=O)N[C@@H](Cc1cnc[nH]1)C(=O)N[C@@H](CC(N)=O)C(=O)N[C@@H](Cc1ccccc1)C(N)=O)C(C)C)C(C)C | Non-Toxic
CC[C@H](C)[C@H](NC(=O)[C@H](CCC(=O)O)NC(=O)[C@H](CO)NC(=O)[C@@H](NC(=O)[C@H](CO)NC(C)=O)C(C)C)C(=O)N[C@@H](CCC(N)=O)C(=O)N[C@@H](CC(C)C)C(=O)N[C@@H](CCSC)C(=O)N[C@@H](Cc1cnc[nH]1)C(=O)N[C@@H](CC(N)=O)C(=O)N[C@@H](CC(C)C)C(=O)NCC(=O)N[C@@H](CCCCN)C(=O)N[C@@H](Cc1cnc[nH]1)C(=O)N[C@@H](CC(C)C)C(=O)N[C@@H](CC(N)=O)C(=O)N[C@@H](CO)C(=O)N[C@@H](CCSC)C(=O)N[C@@H](CCC(=O)O)C(=O)N[C@@H](CCCNC(=N)N[C@@H]1O[C@H](CO)[C@@H](O)[C@H](O)[C@H]1NC(C)=O)C(=O)N[C@H](C(=O)N[C@@H](CCC(=O)O)C(=O)N[C@@H](Cc1c[nH]c2ccccc12)C(=O)N[C@@H](CC(C)C)C(=O)N[C@@H](CCCNC(=N)N)C(=O)N[C@@H](CCCCN)C(=O)N[C@@H](CCCCN)C(=O)N[C@@H](CC(C)C)C(=O)N[C@@H](CCC(N)=O)C(=O)N[C@@H](CC(=O)O)C(=O)N[C@H](C(=O)N[C@@H](Cc1cnc[nH]1)C(=O)N[C@@H](CC(N)=O)C(=O)N[C@@H](Cc1ccccc1)C(N)=O)C(C)C)C(C)C | Non-Toxic
CC[C@H](C)[C@H](NC(=O)[C@H](CCC(=O)O)NC(=O)[C@H](CO)NC(=O)[C@@H](NC(=O)[C@H](CO)NC(C)=O)C(C)C)C(=O)N[C@@H](CCC(N)=O)C(=O)N[C@@H](CC(C)C)C(=O)N[C@@H](CCSC)C(=O)N[C@@H](Cc1cnc[nH]1)C(=O)N[C@@H](CC(N)=O)C(=O)N[C@@H](CC(C)C)C(=O)NCC(=O)N[C@@H](CCCCN)C(=O)N[C@@H](Cc1cnc[nH]1)C(=O)N[C@@H](CC(C)C)C(=O)N[C@@H](CC(N)=O)C(=O)N[C@@H](CO)C(=O)N[C@@H](CCSC)C(=O)N[C@@H](CCC(=O)O)C(=O)N[C@@H](CCCNC(=N)N)C(=O)N[C@H](C(=O)N[C@@H](CCC(=O)O)C(=O)N[C@@H](Cc1c[nH]c2ccccc12)C(=O)N[C@@H](CC(C)C)C(=O)N[C@@H](CCCNC(=N)N[C@@H]1O[C@@H](C)[C@H](O)[C@@H](O)[C@H]1O)C(=O)N[C@@H](CCCCN)C(=O)N[C@@H](CCCCN)C(=O)N[C@@H](CC(C)C)C(=O)N[C@@H](CCC(N)=O)C(=O)N[C@@H](CC(=O)O)C(=O)N[C@H](C(=O)N[C@@H](Cc1cnc[nH]1)C(=O)N[C@@H](CC(N)=O)C(=O)N[C@@H](Cc1ccccc1)C(N)=O)C(C)C)C(C)C | Non-Toxic
CC[C@H](C)[C@H](NC(=O)[C@H](CCC(=O)O)NC(=O)[C@H](CO)NC(=O)[C@@H](NC(=O)[C@H](CO)NC(C)=O)C(C)C)C(=O)N[C@@H](CCC(N)=O)C(=O)N[C@@H](CC(C)C)C(=O)N[C@@H](CCSC)C(=O)N[C@@H](Cc1cnc[nH]1)C(=O)N[C@@H](CC(N)=O)C(=O)N[C@@H](CC(C)C)C(=O)NCC(=O)N[C@@H](CCCCN)C(=O)N[C@@H](Cc1cnc[nH]1)C(=O)N[C@@H](CC(C)C)C(=O)N[C@@H](CC(N)=O)C(=O)N[C@@H](CO)C(=O)N[C@@H](CCSC)C(=O)N[C@@H](CCC(=O)O)C(=O)N[C@@H](CCCNC(=N)N[C@H]1O[C@H](CO)[C@@H](O)[C@H](O)[C@H]1O)C(=O)N[C@H](C(=O)N[C@@H](CCC(=O)O)C(=O)N[C@@H](Cc1c[nH]c2ccccc12)C(=O)N[C@@H](CC(C)C)C(=O)N[C@@H](CCCNC(=N)N)C(=O)N[C@@H](CCCCN)C(=O)N[C@@H](CCCCN)C(=O)N[C@@H](CC(C)C)C(=O)N[C@@H](CCC(N)=O)C(=O)N[C@@H](CC(=O)O)C(=O)N[C@H](C(=O)N[C@@H](Cc1cnc[nH]1)C(=O)N[C@@H](CC(N)=O)C(=O)N[C@@H](Cc1ccccc1)C(N)=O)C(C)C)C(C)C | Non-Toxic
CC[C@H](C)[C@H](NC(=O)[C@H](CCC(=O)O)NC(=O)[C@H](CO)NC(=O)[C@@H](NC(=O)[C@H](CO)NC(C)=O)C(C)C)C(=O)N[C@@H](CCC(N)=O)C(=O)N[C@@H](CC(C)C)C(=O)N[C@@H](CCSC)C(=O)N[C@@H](Cc1cnc[nH]1)C(=O)N[C@@H](CC(N)=O)C(=O)N[C@@H](CC(C)C)C(=O)NCC(=O)N[C@@H](CCCCN)C(=O)N[C@@H](Cc1cnc[nH]1)C(=O)N[C@@H](CC(C)C)C(=O)N[C@@H](CC(N)=O)C(=O)N[C@@H](CO)C(=O)N[C@@H](CCSC)C(=O)N[C@@H](CCC(=O)O)C(=O)N[C@@H](CCCNC(=N)N[C@@H]1O[C@H](CO)[C@@H](O[C@@H]2O[C@H](CO)[C@H](O)[C@H](O)[C@H]2O)[C@H](O)[C@H]1O)C(=O)N[C@H](C(=O)N[C@@H](CCC(=O)O)C(=O)N[C@@H](Cc1c[nH]c2ccccc12)C(=O)N[C@@H](CC(C)C)C(=O)N[C@@H](CCCNC(=N)N[C@@H]1O[C@H](CO)[C@@H](O[C@@H]2O[C@H](CO)[C@H](O)[C@H](O)[C@H]2O)[C@H](O)[C@H]1O)C(=O)N[C@@H](CCCCN)C(=O)N[C@@H](CCCCN)C(=O)N[C@@H](CC(C)C)C(=O)N[C@@H](CCC(N)=O)C(=O)N[C@@H](CC(=O)O)C(=O)N[C@H](C(=O)N[C@@H](Cc1cnc[nH]1)C(=O)N[C@@H](CC(N)=O)C(=O)N[C@@H](Cc1ccccc1)C(N)=O)C(C)C)C(C)C | Non-Toxic
CC[C@H](C)[C@H](NC(=O)[C@H](CCC(=O)O)NC(=O)[C@H](CO)NC(=O)[C@@H](NC(=O)[C@H](CO)NC(C)=O)C(C)C)C(=O)N[C@@H](CCC(N)=O)C(=O)N[C@@H](CC(C)C)C(=O)N[C@@H](CCSC)C(=O)N[C@@H](Cc1cnc[nH]1)C(=O)N[C@@H](CC(N)=O)C(=O)N[C@@H](CC(C)C)C(=O)NCC(=O)N[C@@H](CCCCN)C(=O)N[C@@H](Cc1cnc[nH]1)C(=O)N[C@@H](CC(C)C)C(=O)N[C@@H](CC(N)=O)C(=O)N[C@@H](CO)C(=O)N[C@@H](CCSC)C(=O)N[C@@H](CCC(=O)O)C(=O)N[C@@H](CCCNC(=N)N[C@@H]1O[C@H](CO)[C@H](O)[C@H](O)[C@H]1O)C(=O)N[C@H](C(=O)N[C@@H](CCC(=O)O)C(=O)N[C@@H](Cc1c[nH]c2ccccc12)C(=O)N[C@@H](CC(C)C)C(=O)N[C@@H](CCCNC(=N)N[C@@H]1O[C@H](CO)[C@H](O)[C@H](O)[C@H]1O)C(=O)N[C@@H](CCCCN)C(=O)N[C@@H](CCCCN)C(=O)N[C@@H](CC(C)C)C(=O)N[C@@H](CCC(N)=O)C(=O)N[C@@H](CC(=O)O)C(=O)N[C@H](C(=O)N[C@@H](Cc1cnc[nH]1)C(=O)N[C@@H](CC(N)=O)C(=O)N[C@@H](Cc1ccccc1)C(N)=O)C(C)C)C(C)C (Ac-SVSEIQLMHNLGKHLNSME[X4]VEWL[X4]KKLQDVHNF-NH2) | Non-Toxic
